Earlier results in patent publication US11839666B2, “Oral care article comprising a hydrophobic delivery carrier and solid hydrophilic particles comprising an agent” (The Procter & Gamble Company, priority 2020, dated 2023).
Read-outs that look alike come from different tables or passages of the source.

Conditions: at 20 C

NC(N)=O.OO [Urea Hydrogen Peroxide Adduct]
Solubility in water (per Safety Data Sheet from supplier): 800 grams per liter | Solubility in water (restated from Safety Data Sheet value): 80 parts per 100 parts of water
